Data from ChEMBL document CHEMBL1144995, “Carbonic anhydrase inhibitors. Inhibition of tumor-associated isozyme IX by halogenosulfanilamide and halogenophenylaminobenzolamide derivatives” (J Med Chem, 2003).

Tests used:
Carbonic anhydrase 9 = Carbonic anhydrase 9 (Homo sapiens, UniProt Q16790)
Description: Inhibition constant determined against catalytic domain of human cloned carbonic anhydrase IX

Carbonic anhydrase 2 = Carbonic anhydrase 2 (Homo sapiens, UniProt P00918)
Description: Inhibition constant (Ki) against human cloned carbonic anhydrase II (CAH)

Carbonic anhydrase 1 = Carbonic anhydrase 1 (Homo sapiens, UniProt P00915)
Description: Inhibition constant determined against human cloned carbonic anhydrase I

Carbonic anhydrase 4 = target: T1, Carbonic anhydrase 4 (Bos taurus, UniProt Q95323)
T1 sequence (Q95323 whole entry): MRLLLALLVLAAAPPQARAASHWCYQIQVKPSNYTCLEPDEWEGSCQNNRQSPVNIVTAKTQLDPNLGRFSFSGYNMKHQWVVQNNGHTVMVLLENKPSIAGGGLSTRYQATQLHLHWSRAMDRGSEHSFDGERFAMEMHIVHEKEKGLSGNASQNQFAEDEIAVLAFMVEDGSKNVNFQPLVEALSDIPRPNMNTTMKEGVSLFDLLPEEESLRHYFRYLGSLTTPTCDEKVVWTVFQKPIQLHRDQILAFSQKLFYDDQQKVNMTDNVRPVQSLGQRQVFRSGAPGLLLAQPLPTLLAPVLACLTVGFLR
Description: Inhibition constant against bovine Carbonic anhydrase IV, isolated from lung microsomes

Sequence of Carbonic anhydrase 1 (P00915 whole entry): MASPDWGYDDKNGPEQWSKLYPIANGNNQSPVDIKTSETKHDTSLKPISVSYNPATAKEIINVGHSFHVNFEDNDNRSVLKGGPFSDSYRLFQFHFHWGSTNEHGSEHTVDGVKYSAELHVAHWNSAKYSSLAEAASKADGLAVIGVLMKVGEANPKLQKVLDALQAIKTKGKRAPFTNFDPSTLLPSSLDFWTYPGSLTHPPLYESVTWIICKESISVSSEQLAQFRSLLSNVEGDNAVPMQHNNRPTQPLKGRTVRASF

| Structure (SMILES) | Ki (Carbonic anhydrase 9) [nM] | Ki (Carbonic anhydrase 2) [nM] | Ki (Carbonic anhydrase 1) [nM] | Ki (Carbonic anhydrase 4) [nM] |
| --- | --- | --- | --- | --- |
| CC(=O)Nc1ccc(S(=O)(=O)Nc2nnc(S(N)(=O)=O)s2)cc1Br | 78 | 1.5 | 5 | 4.6 |
| CC(=O)Nc1ccc(S(=O)(=O)Nc2nnc(S(N)(=O)=O)s2)cc1Cl | 71 | 1.3 | 5.4 | 4.2 |
| CC(=O)Nc1ccc(S(=O)(=O)Nc2nnc(S(N)(=O)=O)s2)cc1F | 79 | 1.2 | 5.7 | 4 |
| CC(=O)Nc1ccc(S(=O)(=O)Nc2nnc(S(N)(=O)=O)s2)cc1 | 75 | 3.1 | 10.2 | 8.2 |
| Nc1c(Cl)cc(S(=O)(=O)Nc2nnc(S(N)(=O)=O)s2)cc1Cl | 24 | 0.5 | 1.1 | 1.9 |
| Nc1c(F)cc(S(N)(=O)=O)cc1Br | 69 | 33 | 3900 | 113 |
| CC(=O)Nc1ccc(S(=O)(=O)Nc2nnc(S(N)(=O)=O)s2)cc1I |  | 1.7 | 5.2 | 4.5 |
| CC(=O)Nc1ccc(S(N)(=O)=O)cc1F | 213 | 29 | 4200 | 105 |
| Nc1c(F)cc(S(=O)(=O)Nc2nnc(S(N)(=O)=O)s2)cc1Br | 27 | 0.2 | 1 | 1.9 |
| Nc1ccc(S(=O)(=O)Nc2nnc(S(N)(=O)=O)s2)cc1I |  | 0.6 | 2.1 | 2.5 |
| Nc1c(Cl)cc(S(=O)(=O)Nc2nnc(S(N)(=O)=O)s2)cc1Br |  | 0.6 | 1.3 | 2 |
| Nc1c(Br)cc(S(N)(=O)=O)cc1Br | 68 |  |  | 175 |
| Nc1c(Cl)cc(S(=O)(=O)Nc2nnc(S(N)(=O)=O)s2)cc1I |  | 0.8 | 1.6 | 2.7 |
| Nc1ccc(S(=O)(=O)Nc2nnc(S(N)(=O)=O)s2)cc1Cl | 46 | 0.6 | 2.5 | 2.4 |
| CC(=O)Nc1ccc(S(N)(=O)=O)cc1Cl | 196 | 74 | 6250 | 245 |
| Nc1c(F)cc(S(=O)(=O)Nc2nnc(S(N)(=O)=O)s2)cc1I | 21 | 0.3 | 1.7 | 2.1 |

| Structure (SMILES) | Ki (Carbonic anhydrase 9) [nM] | Ki (Carbonic anhydrase 2) [nM] | Ki (Carbonic anhydrase 1) [nM] | Ki (Carbonic anhydrase 4) [nM] |
| --- | --- | --- | --- | --- |
| Nc1c(Br)cc(S(N)(=O)=O)cc1I |  | 107 | 12500 | 250 |
| Nc1c(Cl)cc(S(N)(=O)=O)cc1Br | 33 | 54 | 7600 | 210 |
| CC(=O)Nc1ccc(S(N)(=O)=O)cc1I | 209 | 47 | 3300 | 115 |
| Nc1c(I)cc(S(N)(=O)=O)cc1I |  |  | 14000 | 280 |
| Nc1c(I)cc(S(=O)(=O)Nc2nnc(S(N)(=O)=O)s2)cc1I | 41 | 0.9 |  | 2.3 |
| Nc1c(Cl)cc(S(N)(=O)=O)cc1I | 63 | 61 | 7800 | 200 |
| Nc1ccc(S(=O)(=O)Nc2nnc(S(N)(=O)=O)s2)cc1F | 46 | 0.8 | 3.1 | 2.5 |
| Nc1c(Br)cc(S(=O)(=O)Nc2nnc(S(N)(=O)=O)s2)cc1Br | 39 | 0.5 | 1 | 1.7 |
| CC(=O)Nc1ccc(S(N)(=O)=O)cc1Br | 203 | 25 | 3400 | 58 |
| Nc1c(F)cc(S(N)(=O)=O)cc1I | 34 | 29 | 3700 | 125 |
| Nc1c(Cl)cc(S(N)(=O)=O)cc1Cl | 27 | 50 | 7000 | 165 |
| Nc1ccc(S(=O)(=O)Nc2nnc(S(N)(=O)=O)s2)cc1Br | 47 | 0.7 | 1.9 | 2.4 |
| Nc1c(F)cc(S(N)(=O)=O)cc1Cl | 12 | 32 | 3800 | 95 |
| Nc1c(F)cc(S(=O)(=O)Nc2nnc(S(N)(=O)=O)s2)cc1Cl | 40 |  | 1.4 | 2 |
| Nc1c(Br)cc(S(=O)(=O)Nc2nnc(S(N)(=O)=O)s2)cc1I |  | 0.6 | 1.9 | 2.3 |
